Source: patent publication US20110217202A1, “ACTIVE OXYGEN DISINFECTION SYSTEM AND USE THEREOF” (priority 2010, published 2011)

Columns and labels:
[1] = dissociation constant of the dibasic compound; cited from earlier work
S. marcescens = assay: Photosensitizer with or without H2O2 or PHMB, rate of kill, S. marcescens; type: cell-based
Method: All solutions (testing and control) are then incubated for about 5 minutes at 37° C. in the dark in an orbital incubator prior to exposure to the relevant light conditions. […]
(§1) After incubation overnight, the colony forming units at the dilution where they can best be counted are quantified and number of colony forming units per mL calculated.
In all instances the bacterial challenge is at least 5×10^5 cfu/mL. SoftWear Saline (providing 0.003% H2O2), photosensitizer solutions are made up at double the concentration to be tested using the SoftWear Saline as the diluent. 2.5 mLs of this solution is then mixed with 2.5 mLs of bacteria to form the test solutions.
In all instances the bacterial challenge is at least 5×10^5 cfu/mL. Solutions containing the photosensitizers and PHMB are made up separately at quadruple the concentration to be tested.

P. aeruginosa = assay: Photosensitizer rate of kill under light exposure, P. aeruginosa; type: cell-based
Method: P. aeruginosa is grown in nutrient broth for about 18 hours to bring the bacteria into the logarithmic growth phase prior to being spun down via centrifugation and the pellet resuspended in sterile phosphate buffered saline (PBS). The bacterial suspension is then diluted to obtain an OD of 0.9 at 540 nm. This stock bacterial solution is subsequently diluted 1 in 500 to obtain a test solution containing about 10^5-10^6 cfu/ml.
A solution of one of the five photosensitizers is made at double the concentration to be tested.
A testing solution (lens care solution) is prepared by adding 5 mL of a photosensitizer solution to 5 mL of the bacterial solution.
Two control solutions are prepared by adding 5 mL of sterile PBS to 5 mL of the bacterial solution. One of the two control solutions is kept in the dark (i.e., Control Dark) and the other one is exposed to the same light conditions as the photosensitizer test solutions (i.e., Control Light).
All solutions (testing and control) are then incubated for about 5 minutes at 37° C. in the dark in an orbital incubator prior to exposure to the relevant light conditions. The light source used provides broad spectrum visible light and the temperature is controlled using a fan.
as §1
All solutions are then incubated for about 5 minutes at 37° C. in the dark in an orbital incubator prior to exposure to the relevant light conditions.
Two light sources are used to assess antibacterial activity of the range of photosensitizers. One is a broad spectrum light source which emits light across visible spectrum. […] The other light source used is a red LED, which emits light of a single wavelength at 630 nm.
The red LED light source emits with a power of 27 mW/cm2. In both instances, the power is measured using an ILT-1400 A Radiometer/Photometer.
as §1

C. albicans = assay: Photosensitizer with PHMB, rate of kill, C. albicans; type: cell-based; details: 10 μg/mL with 0.00005% PHMB; LED 630 nm; one hour; about 10^7 cfu/ml
Method: All materials used and the method used to determine the rate of bacterial kill are described in Example 1 as was the method. In all instances the bacterial challenge is at least 5×10^5 cfu/mL. Solutions containing the photosensitizers and PHMB are made up separately at quadruple the concentration to be tested. 1.25 mLs of each solution is then added to 2.5 mLs of bacteria suspension to render the correct concentration to be tested.
Where a testing solution contains 10 μg/mL TMPyP and 0.00005% PHMB, a 5 Log reduction in bacterial viability against about 10^7 cfu/ml C. albicans is observed after one hour of light exposure to a LED (630 nm).

[2] = 5 μg/mL, red light/LED 630 nm, one hour, about 10^5 cfu/ml
[3] = 10 μg/mL, broad spectrum light source, about 45 minutes, about 10^5 cfu/ml

Compound: OCC(CO)(CO)NCCCNC(CO)(CO)CO [bis-TRIS-propane, 1,3-bis(tris[hydroxymethyl]methylamino)propane]
- pKa1 [1]: 6.8
- pKa2 [1]: 9.5

Compound: polyhexamethylene biguanide [PHMB]
- Log reduction in bacterial viability (S. marcescens; 0.00005% PHMB without any sensitizer, one hour, about 10^5 cfu/ml): 1 Log

Compound: Cc1cc2nc3ccc(N(C)C)cc3[s+]c2cc1N.[Cl-] [TBO, Toluidine Blue O]
- Log reduction in bacterial viability (S. marcescens; 0.625 μg/mL with 0.00005% PHMB, LED 630 nm, about 15 minutes, about 10^5 cfu/ml): 3 Log
- Log reduction in bacterial viability (S. marcescens; 0.625 μg/mL with 0.00005% PHMB, LED 630 nm, about 30 minutes, about 10^5 cfu/ml): 5-6 Log
- Log reduction in bacterial viability (S. marcescens; 1.25 μg/mL with 0.00005% PHMB, red LED 630 nm, about 15 minutes, about 10^5 cfu/ml): 3 Log
- Log reduction in bacterial viability (S. marcescens; 1.25 μg/mL with 0.00005% PHMB, red LED 630 nm, about 45 minutes, about 10^5 cfu/ml): 5-6 Log
- Log reduction in bacterial viability (S. marcescens; 2.5 μg/mL with 0.00005% PHMB, red LED 630 nm, about 30 minutes, about 10^5 cfu/ml): 5-6 Log
- Log reduction in bacterial viability (S. marcescens; 2.5 μg/mL with 0.0005% PHMB, red LED 630 nm, about 15 minutes, about 10^5 cfu/ml): 5-6 Log
- Log reduction in bacterial viability (S. marcescens; 2.5 μg/mL with 0.003% H2O2, red LED 630 nm, 30 minutes, about 10^5 cfu/ml): 5-6 Log
- Log reduction in bacterial viability (S. marcescens; 5 μg/mL only, free of H2O2, red LED 630 nm, 45 minutes): 5-6 Log
- Log reduction in bacterial viability (P. aeruginosa; 5 μg/mL, broad spectrum light source, about 30 minutes, about 10^5 cfu/ml): 5-6 Log
- Log reduction in bacterial viability (P. aeruginosa; [2]): 5-6 Log
- Log reduction in bacterial viability (P. aeruginosa; [3]): 5-6 Log
- Log reduction in bacterial viability (P. aeruginosa; 50 μg/mL, broad spectrum light source, between 30 to 45 minutes, about 10^5 cfu/ml): 3 Log
- reduction in bacterial viability (P. aeruginosa; 250 μg/mL, broad spectrum visible light, time not stated, about 10^5 cfu/ml): no reduction in bacterial viability
- Rate of kill (Log reduction in bacterial viability) (P. aeruginosa; 375 μg/mL, broad spectrum visible light, 30 minutes light exposure, about 10^5 cfu/ml): 5-6 Log
- Time of Light Exposure (P. aeruginosa; 375 μg/mL, broad spectrum visible light, time for the stated rate of kill): 30 min
- Rate of kill (Log reduction in bacterial viability) (P. aeruginosa; 500 μg/mL, broad spectrum visible light, 15 minutes light exposure, about 10^5 cfu/ml): 5-6 Log
- Time of Light Exposure (P. aeruginosa; 500 μg/mL, broad spectrum visible light, time for the stated rate of kill (Table 2)): 15 min

Compound: CN(C)c1ccc2nc3ccc(=[N+](C)C)cc-3sc2c1 [MB, Methylene Blue]
- Log reduction in bacterial viability (S. marcescens; 20 μg/mL, free of H2O2, red LED 630 nm, one hour, about 10^5 cfu/ml): no reduction in bacterial viability

Compound: Cl.Cl.O=S(=O)(O)c1ccc(-c2c3nc(c(-c4ccc(S(=O)(=O)O)cc4)c4ccc([nH]4)c(-c4ccc(S(=O)(=O)O)cc4)c4nc(c(-c5ccc(S(=O)(=O)O)cc5)c5ccc2[nH]5)C=C4)C=C3)cc1 [TSPP, meso-tetra(4-sulfonatophenyl)porphine dihydrochloride]
- biocidal activity (P. aeruginosa; about 1 mg/mL, broad spectrum visible light, about 10^5 cfu/ml): no significant biocidal activity

Compound: C[n+]1ccc(-c2c3nc(c(-c4cc[n+](C)cc4)c4ccc([nH]4)c(-c4cc[n+](C)cc4)c4nc(c(-c5cc[n+](C)cc5)c5ccc2[nH]5)C=C4)C=C3)cc1.Cc1ccc(S(=O)(=O)[O-])cc1.Cc1ccc(S(=O)(=O)[O-])cc1.Cc1ccc(S(=O)(=O)[O-])cc1.Cc1ccc(S(=O)(=O)[O-])cc1 [TMPyP, tetra(N-methyl-4-pyridyl)porphine tetratosylate]
- Log reduction in bacterial viability (S. marcescens; 10 μg/mL with 0.00005% PHMB, red LED 630 nm, about 45 minutes, about 10^5 cfu/ml): 3 Log
- Log reduction in bacterial viability (S. marcescens; 10 μg/mL with 0.0005% PHMB, red LED 630 nm, about 15 minutes, about 10^5 cfu/ml): 5-6 Log
- Log reduction in bacterial viability (S. marcescens; 10 μg/mL with 0.003% H2O2, red LED 630 nm, one hour, about 10^5 cfu/ml): about 3 Log
- Log reduction in bacterial viability (P. aeruginosa; 5 μg/mL, broad spectrum light source, one hour, about 10^5 cfu/ml): 2 Log
- Log reduction in bacterial viability (P. aeruginosa; 5 μg/mL, broad spectrum light source, two hours, about 10^5 cfu/ml): 5-6 Log
- Log reduction in bacterial viability (P. aeruginosa; [2]): 2 Log
- Log reduction in bacterial viability (P. aeruginosa; [3]): 5-6 Log
- Log reduction in bacterial viability (P. aeruginosa; 10 μg/mL, red LED 630 nm, about 45 minutes, about 10^5 cfu/ml): 5-6 Log
- Rate of kill (Log reduction in bacterial viability) (P. aeruginosa; 50 μg/mL, broad spectrum visible light, 45 minutes light exposure, about 10^5 cfu/ml): 5-6 Log
- Time of Light Exposure (P. aeruginosa; 50 μg/mL, broad spectrum visible light, time for the stated rate of kill): 45 min
- Rate of kill (Log reduction in bacterial viability) (P. aeruginosa; 250 μg/mL, broad spectrum visible light, 45 minutes light exposure, about 10^5 cfu/ml): 5-6 Log
- Time of Light Exposure (P. aeruginosa; 250 μg/mL, broad spectrum visible light, time for the stated rate of kill): 45 min
- Rate of kill (Log reduction in bacterial viability) (P. aeruginosa; 500 μg/mL, broad spectrum visible light, 30 minutes light exposure, about 10^5 cfu/ml): 5-6 Log
- Time of Light Exposure (P. aeruginosa; 500 μg/mL, broad spectrum visible light, time for the stated rate of kill (Table 1)): 30 min
- Log reduction in bacterial viability (C. albicans): 5 Log

Compound: O=C1OC2(c3cc(I)c(O)c(I)c3Oc3c2cc(I)c(O)c3I)c2c(Cl)c(Cl)c(Cl)c(Cl)c21 [RB, Rose Bengal]
- Log reduction in bacterial viability (S. marcescens; 10 μg/mL with 0.00005% PHMB, LED 630 nm, 15 minutes, about 10^5 cfu/ml): 2 Log
- further reduction in bacterial viability on additional light exposure (S. marcescens; 10 μg/mL with 0.00005% PHMB, LED 630 nm, additional light exposure up to one hour): does not reduce bacterial viability
- Log reduction in bacterial viability (S. marcescens; 10 μg/mL with 0.003% H2O2, LED 630 nm, about 10^5 cfu/ml): no reduction in bacterial viability
- Log reduction in bacterial viability (S. marcescens; 10 μg/mL, free of H2O2 or PHMB, LED 630 nm, about 10^5 cfu/ml): no reduction in bacterial viability
- Log reduction in bacterial viability (P. aeruginosa; about 250 μg/mL, broad spectrum visible light, 30 minutes, about 10^5 cfu/ml): 5-6 Log
